Results on one molecule are retold here after patent US20240197733A1, “A GABA RECEPTOR MODULATOR FOR USE IN THE TREATMENT OF PAIN” (SANIONA A/S, priority 2021, published 2024).

Assay [1] relates to electrocutaneous stimulation-induced facial pain rodent model. Put plainly: ES-induced facial pain model, cold thermal allodynia (acetone test), acute treatment. The format is in vivo, Sprague-Dawley rats. An excerpt: The electrocutaneous stimulation-induced facial pain rodent model is a reproducible orofacial pain model in which depilated cheek area of rats are repeatedly subjected to electrical stimulation. Repeated electrical stimulation at low intensities produces craniofacial pain that mimics the behavioral characteristics of TN such as development of mechanical and thermal allodynia at cheeks despite no visible edema, swelling or excessive injury and tissue damage.
Male wild type, Sprague-Dawley rats (Charles River Laboratories) born in-house at AfaSci Research Laboratory between May 24, 2020 to May 28, 2020. At approximately 3 months of age (approximately 350 g-450 g body weight) the rats were deemed suitable for the electrocutaneous stimulation-induced facial pain model. Prior to the experiment, the rats were maintained in group cages (3 rats per cage) in a controlled environment (temperature: 21.5±4.5° C./relative humidity: 35-55%) under a standard 12 h light/12 h dark lighting cycle (lights on at 06:00).
The required quantity of the compounds are weighed and dissolved in 100% DMSO in a volume amounting to 5% of the total volume while placed on a stirrer. The weight of the compounds refers to the free base weights. […]
Second baseline measurement was carried out similarly to day 1. […] For each animal, the average of the two baseline nociceptive measurements were calculated within each pain modality (mechanical, heat- and cold pain), and used as baseline (“Baseline” point on figures).
Similarly, to day 1- and 2, all rats were subjected to acclimatization to test equipment and decapicone followed by measurements of ES-induced facial mechanical- heat- and cold allodynia (“0” time point on figures). […] Compound 1, vehicle and Carbamazepine was administered perorally in doses of 1, 3, and 10 mg/kg (Compound 1) or 30 mg/kg (carbamazepine) and drug effects on pain thresholds were evaluated 2- and 4 hours after drug administration by assessment of mechanical- (von Frey) and thermal hypersensitivity (heat- and cold stimulation respectively). […]

Assay [2] shares this test system. Put plainly: ES-induced facial pain model, hot thermal hyperalgesia (lamp test), prophylactic and acute treatment. The format is in vivo, Sprague-Dawley rats. As to conditions: for development of heat hyperalgesia vs vehicle: day 9 at 0 time. Here is the method:
Immediately following assessment of mechanical pain threshold, thermal (hot- and cold induced) pain was determined. Hot thermal pain thresholds were assessed by measuring each rat's facial withdrawal latency (seconds) in response to thermal stimulation on the depilated and stimulated rat cheek by using Yeomans' Thermal Testing Lamp with the following settings: Lamp fixed ˜7 cm above depilated left cheek of rat, Voltage regulator was set to 45V for C fiber testing. Cutoff was set at 20 seconds to avoid tissue damage. Unless stated otherwise, the same materials, methods, and provisions of Example 1 were applied to Example 2. The required quantity of the compound is weighed and dissolved in 100% DMSO in a volume amounting to 5% of the total volume while placed on a stirrer. The weight of the compounds refers to the free base weights. Once the solution becomes clear/transparent, the remaining volume of the vehicle is added (30% HPBCD prepared in MQ water) to final concentrations of 0.03, 0.1, and 0.3 mg/ml for Compound 1. The solutions are kept on a stirrer before- and during administration of the compounds to the animals. The experimenter assessing the behavioral responses to drug administration is blinded to the drug treatment to the animals. Each treatment group is coded according the scheme below: • A. Vehicle (5% DMSO+30% HPBCD): 10 ml/kg • B. Compound 1: 0.3 mg/kg • C. Compound 1: 1 mg/kg • D. Compound 1: 3 mg/kg • F. Compound 1: 3 mg/kg—acute Second baseline measurement was carried out similarly to day 1, For each animal, the average of the two baseline nociceptive measurements was calculated within each pain modality (mechanical, heat- and cold pain), and used as baseline (“Baseline” point on figures). Then all rats in the above respective group (A-D) are given treated as mentioned. Group F received vehicle treatment. Treatment is continued once daily to each group same as Day 2 All rats were treated with respective treatment as per day 3-7. After 1 hr of treatment, each rat was subjected to 1 hr of electrocutaneous stimulation at depilated cheek (0.4 mA intensity, 10 ms duration, 1 s inter-pulse interval). Similar to day 1- and 2, all rats were acclimatized to test equipment followed by measurements of ES-induced facial mechanical- heat- and cold allodynia (“0” time point on figures). After measurement of hypersensitivity threshold, rats from group A-D received the vehicle and three doses of Compound 1 as mentioned above while group F received single acute dose of 3 mg/kg of Compound 1. Treatment effects on pain thresholds were evaluated 2- and 4 hours after administration by assessing mechanical- (Von Frey) and thermal (heat and cold) withdrawal threshold.

Assay [3] addresses GABAA receptors containing the a3 subunit (Homo sapiens, UniProt P18507+P34903). As to conditions: cited from earlier work.
The target in assay [4] is GABAA receptors containing the a2 subunit (Homo sapiens, UniProt P18507+P47869). To be noted: cited from earlier work.
Chain of GABAA receptors containing the a2 subunit (P47869 29-451): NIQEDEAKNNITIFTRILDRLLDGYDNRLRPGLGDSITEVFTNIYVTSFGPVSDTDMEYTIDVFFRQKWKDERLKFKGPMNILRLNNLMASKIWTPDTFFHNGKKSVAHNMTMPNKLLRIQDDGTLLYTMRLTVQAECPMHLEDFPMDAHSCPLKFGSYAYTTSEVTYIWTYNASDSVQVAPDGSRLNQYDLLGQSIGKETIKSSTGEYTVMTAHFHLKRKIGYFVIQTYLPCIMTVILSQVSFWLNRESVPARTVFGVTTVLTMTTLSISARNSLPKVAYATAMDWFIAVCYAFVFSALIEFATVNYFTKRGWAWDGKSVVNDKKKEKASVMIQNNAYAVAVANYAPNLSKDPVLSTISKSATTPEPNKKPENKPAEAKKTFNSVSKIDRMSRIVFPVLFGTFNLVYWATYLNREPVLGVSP
Chain of GABAA receptors containing the a2 subunit (P47870 25-512 partner limits assumed): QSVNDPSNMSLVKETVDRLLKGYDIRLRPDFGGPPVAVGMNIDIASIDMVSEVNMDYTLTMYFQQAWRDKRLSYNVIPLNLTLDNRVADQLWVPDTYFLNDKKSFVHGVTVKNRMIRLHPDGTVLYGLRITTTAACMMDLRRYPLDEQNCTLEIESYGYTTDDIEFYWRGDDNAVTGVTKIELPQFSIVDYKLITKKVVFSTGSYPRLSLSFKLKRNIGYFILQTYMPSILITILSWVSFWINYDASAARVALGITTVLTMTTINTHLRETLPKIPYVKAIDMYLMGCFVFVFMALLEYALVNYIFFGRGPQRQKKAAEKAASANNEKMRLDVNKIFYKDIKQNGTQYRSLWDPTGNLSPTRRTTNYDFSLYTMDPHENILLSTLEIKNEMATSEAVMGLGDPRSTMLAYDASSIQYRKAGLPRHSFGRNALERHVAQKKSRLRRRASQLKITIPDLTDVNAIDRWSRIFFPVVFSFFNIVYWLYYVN
Chain of GABAA receptors containing the a2 subunit (P18507 40-475): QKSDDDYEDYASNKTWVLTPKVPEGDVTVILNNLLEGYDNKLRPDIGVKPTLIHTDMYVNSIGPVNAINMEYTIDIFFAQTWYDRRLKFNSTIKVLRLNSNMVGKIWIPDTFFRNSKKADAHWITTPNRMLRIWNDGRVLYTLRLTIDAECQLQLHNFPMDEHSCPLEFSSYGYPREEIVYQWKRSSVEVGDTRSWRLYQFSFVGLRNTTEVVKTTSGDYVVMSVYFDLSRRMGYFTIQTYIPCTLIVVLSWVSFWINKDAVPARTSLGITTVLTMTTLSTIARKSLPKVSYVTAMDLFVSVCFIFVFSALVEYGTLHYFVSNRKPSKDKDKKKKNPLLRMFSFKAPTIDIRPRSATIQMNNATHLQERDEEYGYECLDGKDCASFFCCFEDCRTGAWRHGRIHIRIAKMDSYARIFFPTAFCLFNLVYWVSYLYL
Assay [5] concerns the target GABAA receptors containing the a5 subunit (Homo sapiens, UniProt P18507+P31644). To be noted: cited from earlier work.

Chain of GABAA receptors containing the a5 subunit (P31644 32-462): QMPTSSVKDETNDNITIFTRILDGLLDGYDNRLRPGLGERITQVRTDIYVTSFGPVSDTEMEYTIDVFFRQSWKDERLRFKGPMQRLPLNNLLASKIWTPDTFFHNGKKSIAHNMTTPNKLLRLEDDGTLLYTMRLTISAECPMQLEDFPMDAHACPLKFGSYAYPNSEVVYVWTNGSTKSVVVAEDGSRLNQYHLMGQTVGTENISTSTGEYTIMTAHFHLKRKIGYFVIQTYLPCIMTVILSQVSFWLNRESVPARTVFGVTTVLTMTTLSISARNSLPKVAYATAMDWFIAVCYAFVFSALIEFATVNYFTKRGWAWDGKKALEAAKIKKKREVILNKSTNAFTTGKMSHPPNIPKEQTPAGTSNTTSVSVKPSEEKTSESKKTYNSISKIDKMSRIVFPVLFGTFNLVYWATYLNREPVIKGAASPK
Chain of GABAA receptors containing the a5 subunit (P47870 25-512 partner limits assumed): as the sequence (P47870 25-512 partner limits assumed) above
Chain of GABAA receptors containing the a5 subunit (P18507 40-475): as the sequence (P18507 40-475) above
Chain of GABAA receptors containing the a3 subunit (P34903 29-492): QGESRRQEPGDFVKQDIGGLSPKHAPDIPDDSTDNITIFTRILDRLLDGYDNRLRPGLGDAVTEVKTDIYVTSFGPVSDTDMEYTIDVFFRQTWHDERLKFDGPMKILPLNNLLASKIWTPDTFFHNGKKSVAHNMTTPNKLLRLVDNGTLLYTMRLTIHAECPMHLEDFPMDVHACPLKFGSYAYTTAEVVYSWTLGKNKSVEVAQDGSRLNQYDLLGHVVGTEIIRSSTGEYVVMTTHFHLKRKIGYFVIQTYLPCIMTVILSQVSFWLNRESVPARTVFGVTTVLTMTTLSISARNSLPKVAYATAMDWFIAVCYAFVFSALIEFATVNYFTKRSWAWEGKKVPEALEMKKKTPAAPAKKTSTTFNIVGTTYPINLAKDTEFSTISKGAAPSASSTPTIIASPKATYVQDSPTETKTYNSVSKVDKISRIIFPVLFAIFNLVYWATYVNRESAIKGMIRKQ
Chain of GABAA receptors containing the a3 subunit (P47870 25-512 partner limits assumed): as the sequence (P47870 25-512 partner limits assumed) above
Chain of GABAA receptors containing the a3 subunit (P18507 40-475): as the sequence (P18507 40-475) above

On to `COc1ncc(-c2cccc(-n3cnc4cc(C(C)(C)O)cnc43)c2)c(OC)n1` [Compound 1, 2-(3-(3-(2,4-dimethoxypyrimidin-5-yl)phenyl)-3H-imidazo[4,5-b]pyridin-6-yl)propan-2-ol], for which the “effect on cold pain threshold (acetone test, facial withdrawal latency) vs vehicle” value in assay [1] (10 mg/kg po, 2 and 4 hours of treatment, p<0.001 and p<0.0001 vs vehicle) is “significant enhancement of the cold pain threshold”. Also, in assay [1] (po, p<0.01 after 2 and 4 hrs of dosing vs vehicle), the “minimum effective dose, cold allodynia (acetone test)” value is 3 mg/kg. Besides, the “effect on established heat hyperalgesia vs vehicle” value is listed as “reversed the heat hyperalgesia” in assay [2] (acute 3 mg/kg po on day 9, p<0.0001 post 2 and 4 hrs); “further enhanced the analgesic effect” in assay [2] (prophylactic 0.3 mg/kg po plus additional dose on day 9, p<0.05 post 2 hrs, p<0.001 post 4 hrs); “further enhanced the analgesic effect” in assay [2] (prophylactic 1 mg/kg po plus additional dose on day 9, p<0.0001 post 2 hrs and post 4 hrs); “further enhanced the analgesic effect” in assay [2] (prophylactic 3 mg/kg po plus additional dose on day 9, p<0.0001 post 2 hrs and post 4 hrs). For the same molecule, the “development of heat hyperalgesia vs vehicle” value is “significantly reduced the development of heat hyperalgesia” in assay [2] (prophylactic 1 mg/kg po once daily for 7 days, p<0.05 vs vehicle) and “significantly reduced the development of heat hyperalgesia” in assay [2] (prophylactic 3 mg/kg po once daily for 7 days, p<0.0001 vs vehicle). In addition, the “modulation of GABAA receptors containing the a3 subunit” value in assay [3] is given as “positive allosteric modulator (PAM)”. The “positive allosteric modulation of GABAA receptors containing the a2 subunit” value in assay [4] is on record as “to a minor extent”. For the same molecule, in assay [5], the “positive allosteric modulation of GABAA receptors containing the a5 subunit” value is given as “to a minor extent”.
